According to paper PMC8296985, “A Covalent Calmodulin Inhibitor as a Tool to Study Cellular Mechanisms of K-Ras-Driven Stemness” (Frontiers in Cell and Developmental Biology, 2021):

Columns and labels:
K-RasG12V/CaM = biological target: T1, K-RasG12V/CaM (Homo sapiens, UniProt P0DP23); experiment: Rluc8-K-RasG12V/GFP2-CaM interaction BRET in HEK293-EBNA cells; type: cell-based; conditions: for IC50: 24-h exposure, A/D plasmid ratio 9/1, read-out: IC50 of Rluc8-K-RasG12V/GFP2-CaM BRET signal
T1 construct: expressed in transfected cells; host or cells: HEK293-EBNA
Protocol: BRET assays were essentially performed as described by others ([Lavoie et al., 2013]; [Bery et al., 2018]). About 100,00–150,000 HEK293-EBNA ([Meissner et al., 2001]) cells were seeded per well of a 12-well plate in 1 ml of DMEM containing 10% FBS and 2 mM L-glutamine and were grown for 24 h. Next day, Rluc8-tagged donor and GFP2-tagged acceptor constructs were transfected into cells using a jetPRIME transfection reagent (cat. no. 114-75, Polyplus). Each well was transfected with about 1 μg of plasmid DNA using 3 μl of the jetPRIME reagent. For BRET donor saturation titration experiments, the concentration of donor plasmid (25 ng) was kept constant, and the concentration of acceptor plasmid was increased from 0 to 500 ng for RasG12V BRET pairs and 0–1,000 ng for K-Ras/CaM BRET pairs. The empty pcDNA3.1(-) plasmid was used to top-up the total DNA load per transfection. After 24 h of transfection, cells were treated with compounds or vehicle control (DMSO 0.2% v/v in a growth medium) at the specified concentration for 24 h or the stipulated time period in case of the time-course experiments. The cells from one well of a 12-well plate were collected, washed, and re-plated in PBS (cat. no. 14190-094, Gibco, Thermo Fisher Scientific) on flat bottom, white 96-well plates (cat. no. 236108, Nunc, Thermo Fisher Scientific) as four technical replicates containing 90 μl of cell suspension per well. Then fluorescence intensity followed by BRET readings were carried out on a Clariostar (BMG Labtech) plate reader at 25°C. The fluorescence intensity (RFU) of GFP2 was measured with excitation at 405 ± 10 nm and emission 515 ± 10 nm; it is proportional to the acceptor concentration [acceptor]. BRET readings were taken well by well by adding 10 μl of 100 μM coelenterazine 400a (cat. no. C-320, GoldBio), the Rluc8 substrate to each well (final concentration of 10 μM) using the injector present in the plate reader. Luminescence emission intensities were simultaneously recorded at 410 ± 40 nm (RLU, proportional to [donor]) and 515 ± 15 nm (BRET signal).
The raw BRET ratio was calculated as the BRET signal measured at 515 nm divided by the emission signal measured at 410 nm (RLU). The BRET ratio was obtained by subtracting the raw BRET ratio by a background BRET signal measured for cells expressing only the donor ([Bacart et al., 2008]) as indicated in the formula below:
For BRET donor saturation titration experiments, the BRET ratio was plotted against the [acceptor]/[donor] ratio. Technical repeat data points were averaged, and data points from all biological repeats were collected into one graph for subsequent fitting. The BRET ratio vs. relative expression data were fitted using a binding saturation equation in the Prism (GraphPad) software to obtain BRETmax and BRET50 using the equation y=BRETmax×x/BRET50+x , where x is the relative expression and y is the BRET ratio. BRETmax represents the maximum saturation BRET signal and depends on the structural parameters (distance, orientation) of the BRET complex. BRET50 corresponds to the ratio of the acceptor construct over the donor construct required to attain 50% of the maximum BRET signal and is a measure of the effective relative affinity between the interacting BRET pair ([Marullo and Bouvier, 2007]).

[1] = biological target: T2, mutCaM (CaM with K75Q, K77Q, and K148Q mutations) (Homo sapiens, UniProt P0DP23, K76Q/K78Q); experiment: Fluorescence polarization assay with F-CaMKII peptide and His-mutCaM; type: binding; conditions: 50 nM His-mutCaM, 5 nM F-CaMKII, compared to wt CaM
T2 construct: made in house; host or cells: E. coli BL21 Star (DE3)pLysS
Protocol: Our numbering of CaM follows ([Kong Au and Chow Leung, 1998]) with Ala being the first amino acid in human CaM, as the N-terminal methionine of CaM is removed in most organisms ([Halling et al., 2016]). […] At A600 of 0.6–0.8, the culture was induced with 0.5 mM of isopropyl β-D-thiogalactopyranoside and expressed for 16 h at 25°C. Cells were collected by centrifugation and incubated on ice for 30 min. The cell suspension was sonicated in a lysis buffer (20 mM HEPES, pH 7.6, 150 mM NaCl, 5 mM MgCl2, 0.5 mg/ml lysozyme, and DNase I). The lysates were clarified by centrifugation at 18,000 g for 30 min at 4°C. The soluble fractions were subjected to protein purification.

calmodulin (CaM) = calmodulin (CaM) (Bos taurus, UniProt P62157); experiment: Fluorescence polarization assay, displacement of F-PMCA peptide from CaM; conditions: for kinact/KI: read-out: k2/Ki second-order rate constant
Protocol: Compounds were threefold-diluted in an assay buffer (20 mM Tris Cl pH 7.5, 50 mM NaCl, 1 mM CaCl2, and 0.005% Tween 20), and a complex of 100 nM CaM and 10 nM F-PMCA peptide was added. […] Then the plate was incubated overnight at 4°C, and the next day, final readings were taken after a total of 24 h incubation. The fluorescence anisotropy was calculated and plotted against the logarithm of the compound concentration and fit to the log inhibitor vs. response–variable slope (four parameters) equation in Prism (GraphPad).
The potency and selectivity of a covalent inhibitor are governed by two parameters, namely, Ki, the dissociation constant of the initial non-covalent complex, and k2, the rate of the subsequent covalent bond-forming reaction as given in the chemical equation
E and I denote a protein target and its covalent inhibitor, respectively. E ⋅ I is the initial non-covalent complex, and E – I is the final covalent complex. […] This was repeated for several inhibitor concentrations. Then, kobs was plotted against the concentration of the inhibitor, and the data were fit to a hyperbolic equation kobs=k2×[I]/Ki+[I] to obtain Ki and k2. The ratio of k2/Ki represents the second-order rate constant of the reaction of the covalent inhibitor with the target.

| SMILES | IC50 (K-RasG12V/CaM) [µM] | binding to mutCaM over time [1] | Kd (calmodulin (CaM)) [nM] | Ki (calmodulin (CaM)) [µM] | affinity difference between Calmirasone1 and calmidazolium (calmodulin (CaM); Kd 0.87 μM vs […]) [fold] | affinity for CaM relative to OphA (calmodulin (CaM); after 24-h incubation, higher affinity than OphA) | kinact/KI (calmodulin (CaM)) [M⁻¹ s⁻¹] | effect on Rluc8-K-RasG12V/GFP2-CaM BRET signal, single concentration (K-RasG12V/CaM; calmidazolium 20 μM, prostratin 20 μM, OphA 5 μM) |
| --- | --- | --- | --- | --- | --- | --- | --- | --- |
| CC(C)c1ccc2cc(C(F)(F)F)c(=O)c3c(N4CCCCC4)c(C=O)c(c1)c23 [Compound 1] | 31 ± 2 | displayed binding to mutCaM | 870 | 52 | 64 | fourfold | 2.78 | – |
| CC(C)=C[C@H]1C[C@H](C)[C@]2(CC[C@]3(C)C[C@H]4[C@H](C(=O)C[C@@]4(C)O)/C(C=O)=C\C[C@H]32)O1 [OphA, Ophiobolin A, reference compound] | 12 ± 2 | no binding was observed to mutCaM | – | 79 | – | – | 3.89 | significantly reduced the BRET signal |
